Source: publication PMC4616163, “Inverse relationship between chitobiase and transglycosylation activities of chitinase-D from Serratia proteamaculans revealed by mutational and biophysical analyses” (Scientific Reports, 2015)
Where “and” joins values, the source holds several entries; their conditions need not be identical. Equal entries are not always repeated. Where two headings read alike, the source gives them in different places.

Key:
BcChiA-E61A = assay: Literature Kd values from isothermal titration calorimetry, quoted for comparison; conditions not given in this article.; format: binding; conditions: read-out: Kd values in μM (SmChiB-E144Q, OfChtI-E148Q, BcChiA-E61A); cited from earlier work
Text: (§1) So far three chitinases, two belonging to family GH18 (ChiB from S. marcescens−SmChiB and a chitinase from the insect Ostrinia furnacalis−OfChtI) and one belonging to family GH19 (ChiA from moss species, Bryum coronatum−BcChiA) were studied in great detail for their binding properties using ITC[27][28][29]. […] The high binding affinities of the mutant E153A even for the lower chain CHOS like DP2 and DP3, indicates the probability of these CHOS getting transglycosylated at the substrate-binding cleft. […] Therefore, the exceptionally high binding affinities of the mutant E153A for CHOS with DP2−6 compared to any other GH18 or GH19 chitinases[27][28][29] (Table 3) might be crucial to facilitate the unprecedented hyper-TG activity by SpChiD.

SmChiB-E144Q = assay: as above; format: binding; conditions: read-out: Kd values in μM (SmChiB-E144Q, OfChtI-E148Q, BcChiA-E61A); cited from earlier work
Text: as §1

SpChiD-E153A [1] = target: SpChiD-E153A (Serratia proteamaculans, UniProt A8GFD6, E159A); assay: ITC binding of CHOS to E153A; conditions: ITC
SpChiD-E153A (Serratia proteamaculans, UniProt A8GFD6, E159A), sequence (A8GFD6 entry or part of it E159A): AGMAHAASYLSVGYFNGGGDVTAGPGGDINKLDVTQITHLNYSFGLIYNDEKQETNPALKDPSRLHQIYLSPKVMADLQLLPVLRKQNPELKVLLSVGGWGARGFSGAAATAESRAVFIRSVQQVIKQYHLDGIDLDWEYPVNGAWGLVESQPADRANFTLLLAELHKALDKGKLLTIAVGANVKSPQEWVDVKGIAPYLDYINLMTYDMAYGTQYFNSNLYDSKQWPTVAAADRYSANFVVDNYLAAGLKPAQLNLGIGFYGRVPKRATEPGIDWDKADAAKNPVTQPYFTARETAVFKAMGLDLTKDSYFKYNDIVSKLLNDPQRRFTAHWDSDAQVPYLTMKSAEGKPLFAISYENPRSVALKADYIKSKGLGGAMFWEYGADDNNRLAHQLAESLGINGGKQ
Method: (§2) Calorimetric titrations were carried out at 13 °C with DP2–4 CHOS, and at 25 °C with DP5 and DP6 CHOS, using a MicroCal ITC200 System (Microcal, Northampton, MA, USA). Mutant E153A was extensively dialyzed against 20 mM potassium phosphate (pH 8.0) and the dialysate was used to make CHOS solutions to minimize the heat of dilution during titration. Protein solutions were passed through 0.2-μm filters and thoroughly degassed prior to use. […] Successive injections at 225-s intervals ensured that equilibrium was achieved before adding the next aliquot. The sample in the calorimeter cell was stirred at 260 rpm during titration. Blank titrations were also performed by injecting ligand alone into the buffer solution, which yielded insignificant heat of dilution values. The binding isotherms were analyzed using MicroCal Origin v7.0. Thermodynamic parameters such as binding stoichiometry (n), change in enthalpy (ΔH) and association constant (Ka) were obtained by nonlinear least-squares fitting of experimental data using the one-set-of-sites binding model. Free energy of binding (ΔG) and change in entropy (ΔS) were deduced from the Ka and ΔH values using the standard thermodynamic equation

OfChtI-E148Q = conditions: catalytically-inactive mutant, cited from earlier work
SpChiD mutant E153A = assay: DSC ligand-induced thermal stability of E153A with CHOS DP2–6; format: binding, Serratia proteamaculans; conditions: for Tm Transition-I / Tm Transition-II: DSC, pH 8.0; for Tm Transition-I: E153A 0.5 mg/mL alone or pre-incubated 1 h with 1 mM ligand; for Tm Transition-II: E153A alone or pre-incubated 1 h with 1 mM ligand; for increment of Tm1 over E153A alone / increment of Tm2 over E153A alone: [Tm of E153A + (DP)n] − Tm of E153A alone; for increment of Tm1 over E153A alone: first transition; for increment of Tm2 over E153A alone: second transition
Method: DSC measurements were carried out on a MicroCal VP-DSC (MicroCal LLC, Northampton, MA, USA). SpChiD and mutant E153A were dialyzed against 20 mM potassium phosphate buffer, pH 8.0. The dialysate was used as the reference. Protein samples (0.5 mg/mL) were heated from 10–70 °C at a scan rate of 30°/h to assess the effect of ligand binding on thermal unfolding. Mutant E153A was pre-incubated for 1 h with 1 mM of each ligand (DP2–6) before scanning. Sample and reference solutions were degassed prior to scanning to eliminate bubbling effects. Baseline reproducibility was verified by multiple scans, and the reversibility of protein unfolding was monitored by scanning the sample twice. Buffer scans were subtracted from thermograms obtained in the presence or absence of CHOS before further analysis. Absolute and excess heat capacities were analyzed using a non-two-state fit of the thermogram in Origin v7.0.

SpChiD-E153A [2] = assay: ITC binding of CHOS to E153A; design: species or system Serratia proteamaculans; conditions: for binding affinity to E153A relative to the same ligand on SmChiB: times higher than SmChiB
Method: as §2

SMILES | Kd (BcChiA-E61A) | Kd (SmChiB-E144Q) | n (binding stoichiometry) (SpChiD-E153A [1]; 13 °C) | ΔH° (SpChiD-E153A [1]; 13 °C) | ΔS° (SpChiD-E153A [1]; 13 °C) | −TΔS (SpChiD-E153A [1]; 13 °C) | −ΔG° (SpChiD-E153A [1]; 13 °C) | Kd (OfChtI-E148Q; read-out: Kd to OfChtI-E148Q) | Tm Transition-I (SpChiD mutant E153A) | Tm Transition-II (SpChiD mutant E153A) | binding affinity to E153A relative to the same ligand on SmChiB (SpChiD-E153A [2]) | other results
CC(=O)N[C@H]1[C@H](O[C@H]2[C@H](O)[C@@H](NC(C)=O)C(O)O[C@@H]2CO)O[C@H](CO)[C@@H](O[C@@H]2O[C@H](CO)[C@@H](O[C@@H]3O[C@H](CO)[C@@H](O)[C@H](O)[C@H]3NC(C)=O)[C@H](O)[C@H]2NC(C)=O)[C@@H]1O (some centres unmarked) [DP4, (GlcNAc)4, tetra-N-acetylchitotetraose] | 16 ± 1 µM | 2.7 ± 0.19 µM | – | – | – | – | – | – | – | – | – | –
CC(=O)N[C@H]1[C@H](O[C@H]2[C@H](O)[C@@H](NC(C)=O)C(O)O[C@@H]2CO)O[C@H](CO)[C@@H](O[C@@H]2O[C@H](CO)[C@@H](O[C@@H]3O[C@H](CO)[C@@H](O)[C@H](O)[C@H]3NC(C)=O)[C@H](O)[C@H]2NC(C)=O)[C@@H]1O (some centres unmarked) [DP4] | – | – | 1.69 and 1.69 ± 0.071 | 1.148 ± 0.0675 kcal/mol | 27 cal.mol^−1.deg^−1 | 7.72 kcal/mol | 6.6 kcal/mol | 11.3 ± 1.5 µM | 48.88 ± 0.52 °C | 54.10 ± 0.032 °C | – | –
CC(=O)N[C@H]1[C@H](O[C@H]2[C@H](O)[C@@H](NC(C)=O)[C@H](O[C@H]3[C@H](O)[C@@H](NC(C)=O)C(O)O[C@@H]3CO)O[C@@H]2CO)O[C@H](CO)[C@@H](O[C@@H]2O[C@H](CO)[C@@H](O[C@@H]3O[C@H](CO)[C@@H](O)[C@H](O)[C@H]3NC(C)=O)[C@H](O)[C@H]2NC(C)=O)[C@@H]1O (some centres unmarked) [DP5] | – | – | – | – | – | – | – | 2 ± 0.2 µM | 56.09 ± 0.30 °C | 59.30 ± 0.063 °C | 52 fold | n (binding stoichiometry) (SpChiD-E153A [1]; 25 °C): 1.09 and 1.09 ± 0.00966; ΔH° (SpChiD-E153A [1]; 25 °C): 3.530 ± 0.0468 kcal/mol; ΔS° (SpChiD-E153A [1]; 25 °C): 38.7 cal.mol^−1.deg^−1; −TΔS (SpChiD-E153A [1]; 25 °C): 11.53 kcal/mol; −ΔG° (SpChiD-E153A [1]; 25 °C): 8 kcal/mol; increment of Tm1 over E153A alone (SpChiD mutant E153A): 10.7 °C; increment of Tm2 over E153A alone (SpChiD mutant E153A): 11.2 °C
CC(=O)N[C@H]1[C@H](O[C@H]2[C@H](O)[C@@H](NC(C)=O)[C@H](O[C@H]3[C@H](O)[C@@H](NC(C)=O)C(O)O[C@@H]3CO)O[C@@H]2CO)O[C@H](CO)[C@@H](O[C@@H]2O[C@H](CO)[C@@H](O[C@@H]3O[C@H](CO)[C@@H](O[C@@H]4O[C@H](CO)[C@@H](O)[C@H](O)[C@H]4NC(C)=O)[C@H](O)[C@H]3NC(C)=O)[C@H](O)[C@H]2NC(C)=O)[C@@H]1O (some centres unmarked) [DP6, chitohexaose] | – | – | – | – | – | – | – | 0.48 ± 0.09 µM | 58.15 ± 0.19 °C | 60.49 ± 0.055 °C | 26 fold | n (binding stoichiometry) (SpChiD-E153A [1]; 25 °C): 1.58 and 1.58 ± 0.00962; ΔH° (SpChiD-E153A [1]; 25 °C): 2.281 ± 0.0249 kcal/mol; ΔS° (SpChiD-E153A [1]; 25 °C): 36.3 cal.mol^−1.deg^−1; −TΔS (SpChiD-E153A [1]; 25 °C): 10.81 kcal/mol; −ΔG° (SpChiD-E153A [1]; 25 °C): 8.53 kcal/mol; increment of Tm1 over E153A alone (SpChiD mutant E153A): 12.8 °C; increment of Tm2 over E153A alone (SpChiD mutant E153A): 12.4 °C
CC(=O)N[C@H]1[C@H](O[C@H]2[C@H](O)[C@@H](NC(C)=O)C(O)O[C@@H]2CO)O[C@H](CO)[C@@H](O[C@@H]2O[C@H](CO)[C@@H](O)[C@H](O)[C@H]2NC(C)=O)[C@@H]1O (some centres unmarked) [DP3, (GlcNAc)3, N,N',N''-triacetylchitotriose] | 230 ± 20 µM | 327 ± 22 µM | – | – | – | – | – | – | – | – | – | –
CC(=O)N[C@H]1[C@H](O[C@H]2[C@H](O)[C@@H](NC(C)=O)C(O)O[C@@H]2CO)O[C@H](CO)[C@@H](O[C@@H]2O[C@H](CO)[C@@H](O)[C@H](O)[C@H]2NC(C)=O)[C@@H]1O (some centres unmarked) [DP3] | – | – | 0.84 and 0.839 ± 0.0641 | -1.837 ± 0.186 kcal/mol | 14.9 cal.mol^−1.deg^−1 | 4.26 kcal/mol | 6.1 kcal/mol | – | 50.20 ± 0.47 °C | 54.30 ± 0.043 °C | 1,515 fold | Kd (OfChtI-E148Q; read-out: Kd1 to OfChtI-E148Q): 76.9 µM; Kd (OfChtI-E148Q; read-out: Kd2 to OfChtI-E148Q): 284 µM
CC(=O)N[C@H]1[C@H](O[C@H]2[C@H](O)[C@@H](NC(C)=O)C(O)O[C@@H]2CO)O[C@H](CO)[C@@H](O)[C@@H]1O (some centres unmarked) [DP2] | – | – | 3.04 and 3.04 ± 0.307 | -0.1506 ± 0.0261 kcal/mol | 20.6 cal.mol^−1.deg^−1 | 5.89 kcal/mol | 6.04 kcal/mol | – | 48.78 ± 0.03 °C | 53.16 ± 0.096 °C | – | binding affinity of DP2 to SpChiD relative to DP5 binding to SmChiB (SpChiD-E153A [2]; compared with DP5 on SmChiB (Kd = 0.67 μM)): ~3 times
CC(=O)N[C@H]1[C@H](O[C@H]2[C@H](O)[C@@H](NC(C)=O)[C@H](O[C@H]3[C@H](O)[C@@H](NC(C)=O)C(O)O[C@@H]3CO)O[C@@H]2CO)O[C@H](CO)[C@@H](O[C@@H]2O[C@H](CO)[C@@H](O[C@@H]3O[C@H](CO)[C@@H](O[C@@H]4O[C@H](CO)[C@@H](O)[C@H](O)[C@H]4NC(C)=O)[C@H](O)[C@H]3NC(C)=O)[C@H](O)[C@H]2NC(C)=O)[C@@H]1O (some centres unmarked) [DP6, (GlcNAc)6, hexa-N-acetylchitohexaose (chitohexaose)] | 0.77 ± 0.06 µM | 0.13 ± 0.09 µM | – | – | – | – | – | – | – | – | – | –
CC(=O)N[C@H]1[C@H](O[C@H]2[C@H](O)[C@@H](NC(C)=O)[C@H](O[C@H]3[C@H](O)[C@@H](NC(C)=O)C(O)O[C@@H]3CO)O[C@@H]2CO)O[C@H](CO)[C@@H](O[C@@H]2O[C@H](CO)[C@@H](O[C@@H]3O[C@H](CO)[C@@H](O)[C@H](O)[C@H]3NC(C)=O)[C@H](O)[C@H]2NC(C)=O)[C@@H]1O (some centres unmarked) [DP5, (GlcNAc)5, penta-N-acetylchitopentaose] | 1.8 ± 0.3 µM | 0.67 ± 0.2 µM | – | – | – | – | – | – | – | – | – | –
